Laboratory results: US5304474A, “Hydrophobic peptide esters and amides” (Board of Regents, The University of Texas System, priority 1991, dated 1994)

Key:
[1] = test system: B6 spleen cells (NK, allospecific cytotoxic T cells); assay: Cytotoxic function of B6 spleen cells after incubation; format: cell-based, murine
human dermal fibroblasts = assay: 51Cr release toxicity assay
[2] = test system: EBV-transformed B cell lines or clones; assay: 51Cr release toxicity assay; format: cell-based, human
Text: (§1) HS-Sultan, a human plasma cell line (Goldblum et al. (1973) Proc. Seventh Leucocyte Culture Conference, ed by Daguilland, Acad. Press N.Y. pp 15-28), Daudi, a B lymphoblastoid cell line (Klein et al. (1968) Cancer Res. V 28, p 1300), MoLT-4, an acute lymphoblastic T-cell leukemia line (Monowada et al. (1972) J. Nat'l Canc. Inst. V 49, p 891), and U-937, a human monocyte-like cell line (Koren et al. (1979) Nature V 279, p 891) were obtained from the American Type Culture Collection, Rockville, Md. These lines as well as HEp-2 a human epidermoid carcinoma line (a generous gift of Dr. R. Sontheimer, UTHSCD); Currie, a human renal cell carcinoma line (a generous gift of Dr. M. Prager, UTHSCD); and K562, a human erythroleukemia line (a generous gift of Dr. M. Bennett, UTHSCD) were maintained in culture in medium RMPI supplemented with 10% FBS. Human dermal fibroblasts (a generous gift of Dr. T. Geppert, UTHSCD) were serially passaged in culture as well while human umbilical vein endothelial cells (a generous gift of Dr. A. Johnson, UTHSCD) were used after one subculture Epttein Barr virus (EBV) transformed B lymphoblastoid cell lines JM.6 and SM.4 (kindly provided by Dr. J. Moreno, UTHSCD) and cloned EBV transformed B cell lines SDL-G2 and D8-219 (a generous gift of Drs. L. Stein and M. Dosch, Hospital for Sick Children, Toronto, Canada) were maintained in culture in medium RPMI supplemented with 10% FBS.
(§2) In some experiments, toxicity of Leu-Leu-OMe for a variety of cell populations was assessed by ^51 Cr release In assays where cells obtained from suspension culture were to be used, cells were labeled with Na2^51 CrO4 (ICN, Plainview, N.Y.) for 60-90 minutes at 37° C. and then washed three times. Cells were then suspended in PBS (2.5×10^6 /ml) and incubated in microtiter plates, 50 microL/well with indicated concentrations of Leu-Leu-OMe for 15 minutes at room temperature. […] Following ^51 Cr labeling, wells were thoroughly washed and varying concentrations of Leu-Leu-OMe added in 50 microL PBS and the plates incubated for 15 minutes at room temperature.
(§3) Following such initial serum-free incubations, 200 microL/well of medium RPMI containing 10% FBS were added and the plates incubated for another 4 hours prior to removal of 100 microliters of supernatant. Radioactivity in the supernatant was measured in an auto-gamma scintillation spectrometer (Packard Instrument Co., Downers Grove, Ill.). The percent specific release was calculated from the formula: [formula] in which maximal release refers to cpm obtained in wells containing 50% lysing agent (American Scientific Products, McGraw Park, Ill.) and spontaneous release refers to cpm released by cells incubated in control medium in the absence of Leu-Leu-OMe or the lysing agent. Only experiments in which spontaneous release was […] were used for subsequent data interpretation.
(§4) In developing the data expressed in FIG. 7, cells (2.5×10^6 /ml) were exposed to the indicated concentrations of Leu-Leu-OMe for 15 minutes at room temperature, then specific ^51 Cr release during the next four hours was assessed. Data for the EBV transformed lines JM.6, SDL-G2, D8-219, and SM.4, respectively, are shown in order from top to bottom.

HS-Sultan = assay: 51Cr release toxicity assay; format: cell-based, human; settings: broad range of concentrations
Text: as §1, §2, §3, §4

MoLT-4 = assay: 51Cr release toxicity assay; format: cell-based, human; settings: broad concentration range
Text: as §1, §2, §3, §4

Daudi = assay: 51Cr release toxicity assay; format: cell-based, human; settings: broad range of concentrations
Text: as §1, §2, §3, §4

K562 = assay: 51Cr release toxicity assay; format: cell-based, human
Text: as §1, §2, §3, §4

U937 = assay: 51Cr release toxicity assay; format: cell-based, human
Text: as §1, §2, §3, §4

[3] = test system: natural killer cells (NK); assay: NK function: lysis of K562 target cells (51Cr release) after preincubation of lymphocytes with compound
Experimental: PBM were separated from heparinized venous blood of healthy donors by centrifugation over sodium diatrizoate-Ficoll gradients (Isolymph, Gallard-Schlesinger Chemical Mfg. Corp., Carle Place, N.Y.).
All cell exposures to the amino acids, dipeptides or their methyl esters were carried out by suspending cells in Dulbecco's phosphate buffered saline (PBS) and incubating them at room temperature with the reagent at the indicated concentration and time interval.
Percent of control cytotoxicity was calculated using the formula: [formula]

[4] = test system: graft vs. host disease (GVHD); assay: Murine bone marrow transplantation, donor inoculum treated in vitro: survival and GVHD; format: in vivo, B6→B6D2F1 mice
Experimental: Female, 8-16-wk-old, C57BL/6J (B6) and (C57BL/6J x DBA/2J)F1 mice (B6D2F1) were used as donors and recipients, respectively. For some experiments B6 donors were […] 70×10^6 cells/ml either in phosphate-buffered saline (PBS) or in Leu-Leu-OMe dissolved in PBS. Leu-Leu-OMe was synthesized from leucyl-leucine as previously described (10). After a 15 min incubation at room temperature, the cells were washed once, suspended in Hanks' balanced salt solution, counted, and infused via a lateral tail vein into irradiated (950 cGy) F1 recipients.
Survival times were measured from the day of transplantation to the day of death. Deaths occurring within 8 d of transplantation were considered to be the result of radiation-induced gastroenteritis and were excluded. The nonparametric Mann-Whitney test was used to determine whether the median survival times (MST) differed between groups (14).
Organs of recipient mice were fixed in 10% buffered formalin. Sections were stained with Hematoxylin and Eosin.

In the case of COC(=O)[C@H](CC(C)C)NC(=O)[C@@H](N)CC(C)C [Leu-Leu-OMe, L-leucyl-L-leucine methyl ester], the “NK function of B6 spleen cells” value ([1]; 100 micro-M) is reported as “complete loss of NK function”, the “generation of allospecific cytotoxic T cells” value ([1]; 100 micro-M) is reported as “only partial reduction of the generation of allospecific cytotoxic T cells” and the “cells with cytotoxic potential that remain” value ([1]; single treatment with 250 micro-M) is reported as under 5%. For the same compound, the 51Cr release (human dermal fibroblasts) was “no significant Leu-Leu-OMe induced ^51 Cr release”, the subsequent proliferative capacity (human dermal fibroblasts; 500 micromolar) was “had no discernible effect on subsequent proliferative capacity” and the 51Cr release ([2]; 1 mM, some EBV lines) was “less than 20%”. For the same compound, the 51Cr release ([2]; 250 micromolar, other lines) was 25-35%, the “toxicity (51Cr release)” value ([2]; less than 250 micromolar) was “no significant toxicity” and the “51Cr release and proliferative rate” value (HS-Sultan) was “no significant ^51 Cr release or alteration in subsequent proliferative rate”. The “toxicity (51Cr release)” value (MoLT-4) was “no detectable Leu-Leu-OMe toxicity over a broad concentration range”, the “51Cr release and proliferative rate” value (Daudi) was “no significant ^51 Cr release or alteration in subsequent proliferative rate” and the “51Cr release and proliferative rate” value (K562; 100 micromolar or lower) was “no significant ^51 Cr release or alteration in subsequent proliferative rate”. For the same compound, the “51Cr release and proliferative capacity” value (K562; higher than 100 micromolar) was “modest amounts of ^51 Cr release and partial loss of proliferative capacity”, the “concentration above which extensive 51Cr release and no viable proliferating cell” value (U937) was “more than 250 micromolar” and the “toxicity (51Cr release)” value (U937; concentration-dependent) was “susceptible to concentration-dependent Leu-Leu-OMe toxicity”. The “NK Function % Specific Lysis K562” value ([3]; 12.50 micro-M, Nil 66 (Table 14)) was 60%, the “NK Function % Specific Lysis K562” value ([3]; 25.00 micro-M, Nil 66 (Table 14)) was 12% and the “NK Function % Specific Lysis K562” value ([3]; 50 micro-M, Nil 40.8 (Table 16)) was 1.1%. The “NK Function % Specific Lysis K562” value ([3]; 50.00 micro-M, Nil 66 (Table 14)) was 2%, the “NK Function % Specific Lysis K562” value ([3]; 100.00 micro-M, Nil 66 (Table 14)) was under 1% and the “spontaneous NK lytic units” value ([3]; 100 micromolar, 15 minutes (FIG. 8)) was “totally eliminated”. The “concentration resulting in loss of K562 target binding and complete depletion of Leu 11b stained cells” value ([3]; MP-depleted lymphocytes) was “greater than 50 micromolar”, the “concentration above which no NK function could be detected” value ([3]; MP-depleted lymphocytes, 15 minutes room temperature (FIG. 4)) was “greater than 50 micromolar” and the “Leu--Leu--OMe Sensitivity (LD50)” value ([3]; NK Cells) was 35 micro-M. The “concentration causing maximal depletion of NK” value ([3]; antibody staining (FIG. 6) and functional studies (FIG. 4)) was 100 µM, the “NK Toxicity (LD50)” value ([3]; concentration which results in 50% loss of human NK function, PBL 15 minutes at 22° C.) was 35 micro-M and the “concentration in excess of which NK toxic effects are seen” value ([3]; lymphocytes exposed 15 minutes at room temperature) was over 12.5 micro-M. The “mean concentration required to diminish lytic activity by 75%” value ([3]; spontaneous NK) was 35 µM, the GVHD-mediated tissue injury ([4]; 25×10^6 cells treated with 250 micro-M) was “had no evidence of cutaneous GVHD” and the GVHD-mediated tissue injury ([4]; 25×10^6 donor cells treated with 125 micro-M) was “manifested evidence of acute GVHD, although at somewhat diminished intensity”. The GVHD-mediated tissue injury ([4]; 50×10^6 treated cells) was “manifested acute cutaneous GVHD”, the “mice surviving >90 d (long-term survivors)” value ([4]; immune donors, 37×10^6 donor cells treated with 250 micro-M) was “three of nine” and the “median survival time (MST)” value ([4]; immune donors, 37×10^6 donor cells treated with 250 micro-M, untreated 11 d) was 49 days. For the same compound, the “median survival time (MST)” value ([4]; naive donors, 25×10^6 donor cells treated with 125 micro-M, untreated 19 d) was 41.5 days, the “survival of all recipients” value ([4]; naive donors, 25×10^6 donor cells treated with 250 micro-M, untreated MST 19 d) was over 120 days and the “survival of all recipients” value ([4]; naive donors, 50×10^6 donor cells treated with 250 micro-M, untreated MST 14 d) was over 200 days.
